Experimental data taken from PubChem BioAssay AID588719 (Southern Research Specialized Biocontainment Screening …, 2011).

Test system: Vero 76 cells viability, cytotoxicity counter-screen
Test: Vero 76 cell cytotoxicity, dose response, cytotoxicity control for VEEV inhibitor project (AID 588719)

COc1cc(/C=C/C(=O)/C=C(O)/C=C/c2ccc(O)c(OC)c2)ccc1O
CC50: 19.9 µM
